Results published in the supplement of paper PMC10307832.

What was measured:
Experiment in all cases: relative viability (nuclei count vs DMSO), 5 days (fraction); higher = more cells survive
NCI-H2009 = system: NCI-H2009
How it was run: (§1)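 Nuclei were stained with Hoechst during a one-step fixation (final 0.05% Triton X-100, 1% formaldehyde, 1 ug/ml Hoechst) carried out 5 days after dosing, then counted on 4× images. The cells, lung cancer lines in 1536-well plates, had been dosed by pin tool the day after seeding with one drug alone or a fixed anchor-drug dose plus five library-drug doses (not always all listed) in √10 steps. Relative viability is the nuclei count in treated wells divided by that in vehicle wells, and each value is the median of duplicate plates.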

NCI-H1355 = system: NCI-H1355
How it was run: as §1

PC-3 [JPC-3] = system: PC-3 [JPC-3]
How it was run: as §1

NCI-H460 = system: NCI-H460
How it was run: as §1

NCI-H727 = system: NCI-H727
How it was run: as §1

ABC-1 = system: ABC-1
How it was run: as §1

NCI-H520 = system: NCI-H520
How it was run: as §1

PC-14 = system: PC-14
How it was run: as §1

NCI-H1975 = system: NCI-H1975
How it was run: as §1

NCI-H2126 = system: NCI-H2126
How it was run: as §1

Which results are given for `O=C(O)CCCCC(CCSCc1ccccc1)SCc1ccccc1` (centres undefined) [CPI-613] + CC(C)C[C@H](NC(=O)[C@H](Cc1ccccc1)NC(=O)c1cnccn1)B(O)O [Bortezomib] (partner 0.002 µM)?
relative viability (NCI-H2009; first compound 5 µM): 1.07; relative viability (NCI-H2009; first compound 15.81 µM): 0.942; relative viability (NCI-H2009; first compound 50 µM): 0.884; relative viability (NCI-H2009; first compound 158.11 µM): 0.0722; relative viability (NCI-H2009; first compound 500 µM): 0.0082; relative viability (NCI-H1355; first compound 5 µM): 1.2; relative viability (NCI-H1355; first compound 15.81 µM): 1.22; relative viability (NCI-H1355; first compound 50 µM): 1.23; relative viability (NCI-H1355; first compound 158.11 µM): 0.646; relative viability (NCI-H1355; first compound 500 µM): 0.611; relative viability (PC-3 [JPC-3]; first compound 5 µM): 0.83; relative viability (PC-3 [JPC-3]; first compound 15.81 µM): 0.695; relative viability (PC-3 [JPC-3]; first compound 50 µM): 0.755; relative viability (PC-3 [JPC-3]; first compound 158.11 µM): 0.451; relative viability (PC-3 [JPC-3]; first compound 500 µM): 0.452; relative viability (NCI-H460; first compound 5 µM): 1.07; relative viability (NCI-H460; first compound 15.81 µM): 1.12; relative viability (NCI-H460; first compound 50 µM): 0.895; relative viability (NCI-H460; first compound 158.11 µM): 0.445; relative viability (NCI-H460; first compound 500 µM): 0.0063; relative viability (NCI-H727; first compound 5 µM): 0.806; relative viability (NCI-H727; first compound 15.81 µM): 0.782; relative viability (NCI-H727; first compound 50 µM): 0.792; relative viability (NCI-H727; first compound 158.11 µM): 0.665; relative viability (NCI-H727; first compound 500 µM): 0.0714; relative viability (ABC-1; first compound 5 µM): 0.305; relative viability (ABC-1; first compound 15.81 µM): 0.298; relative viability (ABC-1; first compound 50 µM): 0.302; relative viability (ABC-1; first compound 158.11 µM): 0.232; relative viability (ABC-1; first compound 500 µM): 0.242; relative viability (NCI-H520; first compound 5 µM): 0.756; relative viability (NCI-H520; first compound 15.81 µM): 0.421; relative viability (NCI-H520; first compound 50 µM): 0.858; relative viability (NCI-H520; first compound 158.11 µM): 0.169; relative viability (NCI-H520; first compound 500 µM): 0.0871; relative viability (PC-14; first compound 5 µM): 0.989; relative viability (PC-14; first compound 15.81 µM): 0.855; relative viability (PC-14; first compound 50 µM): 0.839; relative viability (PC-14; first compound 158.11 µM): 0.893; relative viability (PC-14; first compound 500 µM): 0.339; relative viability (NCI-H1975; first compound 5 µM): 0.445; relative viability (NCI-H1975; first compound 15.81 µM): 0.448; relative viability (NCI-H1975; first compound 50 µM): 0.394; relative viability (NCI-H1975; first compound 158.11 µM): 0.174; relative viability (NCI-H1975; first compound 500 µM): 0.0487; relative viability (NCI-H2126; first compound 5 µM): 1.11; relative viability (NCI-H2126; first compound 15.81 µM): 1.06; relative viability (NCI-H2126; first compound 50 µM): 1.04; relative viability (NCI-H2126; first compound 158.11 µM): 0.669
